Data reported in ChEMBL document CHEMBL1908105, “UDP-glucuronosyltransferases and clinical drug-drug interactions” (Pharmacol Ther, 2005).
Values joined by “and” are separate entries in the source; they are usually repeats but may differ in a detail not shown here. Equal values may be shown once.

Tests used:
[1] = Inhibition of morphine glucuronidation by human fetal-liver microsomes; set-up: species or system Microsome
[2] = Inhibition of 4-methylumbelliferone glucuronidation by human UGT enzymes from liver microsomes; set-up: species or system Microsome
[3] = Inhibition of ciramadol glucuronidation by human UGT enzymes from liver microsomes; set-up: species or system Microsome
[4] = Inhibition of AZT glucuronidation by human UGT enzymes from liver microsomes; set-up: species or system Microsome
[5] = target: T1, UDP-glucuronosyltransferase 1A6 (Homo sapiens, UniProt P19224); experiment: Drug glucuronidation reaction catalyzed by human recombinant UGT1A6
T1 sequence (P19224 whole entry): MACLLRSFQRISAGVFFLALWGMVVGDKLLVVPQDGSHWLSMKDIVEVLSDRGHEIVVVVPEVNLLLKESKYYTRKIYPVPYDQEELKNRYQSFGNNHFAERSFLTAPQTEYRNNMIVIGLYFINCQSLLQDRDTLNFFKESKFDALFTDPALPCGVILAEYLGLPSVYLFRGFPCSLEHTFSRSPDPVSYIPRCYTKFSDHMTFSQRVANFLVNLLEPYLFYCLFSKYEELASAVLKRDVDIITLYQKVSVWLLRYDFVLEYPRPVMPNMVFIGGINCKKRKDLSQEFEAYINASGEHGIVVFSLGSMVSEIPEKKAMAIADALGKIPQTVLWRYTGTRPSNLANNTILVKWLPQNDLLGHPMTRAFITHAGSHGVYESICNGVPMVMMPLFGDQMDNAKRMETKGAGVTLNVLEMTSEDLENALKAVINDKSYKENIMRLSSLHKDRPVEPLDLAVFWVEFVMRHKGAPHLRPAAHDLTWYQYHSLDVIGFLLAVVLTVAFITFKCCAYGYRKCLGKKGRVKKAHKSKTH

[6] = Inhibition of acetaminophen glucuronidation by human UGT enzymes from liver microsomes; set-up: species or system Microsome
[7] = target: UDP-glucuronosyltransferase 1A7 (Homo sapiens, UniProt Q9HAW7); experiment: Inhibition of 4-methylumbelliferone glucuronidation by human recombinant UGT1A7
UDP-glucuronosyltransferase 1A7, sequence (Q9HAW7 whole entry): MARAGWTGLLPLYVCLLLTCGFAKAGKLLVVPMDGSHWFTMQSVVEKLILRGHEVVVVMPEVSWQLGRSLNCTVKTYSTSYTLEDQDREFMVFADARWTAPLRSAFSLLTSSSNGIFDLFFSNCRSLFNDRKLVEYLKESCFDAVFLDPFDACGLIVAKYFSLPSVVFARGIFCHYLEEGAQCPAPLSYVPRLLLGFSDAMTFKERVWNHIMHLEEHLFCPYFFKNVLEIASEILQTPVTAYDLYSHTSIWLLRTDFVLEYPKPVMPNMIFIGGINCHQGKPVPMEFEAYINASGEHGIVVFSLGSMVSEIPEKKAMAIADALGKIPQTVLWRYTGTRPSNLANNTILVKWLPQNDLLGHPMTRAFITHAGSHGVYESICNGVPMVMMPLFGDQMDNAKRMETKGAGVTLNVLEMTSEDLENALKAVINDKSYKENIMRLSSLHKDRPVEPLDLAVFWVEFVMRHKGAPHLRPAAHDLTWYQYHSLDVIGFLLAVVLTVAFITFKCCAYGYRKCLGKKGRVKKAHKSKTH

[8] = target: T2, UDP-glucuronosyltransferase 1A1 (Homo sapiens, UniProt P22309); experiment: Inhibition of 4-methylumbelliferone glucuronidation by human recombinant UGT1A1
T2 sequence (P22309 whole entry): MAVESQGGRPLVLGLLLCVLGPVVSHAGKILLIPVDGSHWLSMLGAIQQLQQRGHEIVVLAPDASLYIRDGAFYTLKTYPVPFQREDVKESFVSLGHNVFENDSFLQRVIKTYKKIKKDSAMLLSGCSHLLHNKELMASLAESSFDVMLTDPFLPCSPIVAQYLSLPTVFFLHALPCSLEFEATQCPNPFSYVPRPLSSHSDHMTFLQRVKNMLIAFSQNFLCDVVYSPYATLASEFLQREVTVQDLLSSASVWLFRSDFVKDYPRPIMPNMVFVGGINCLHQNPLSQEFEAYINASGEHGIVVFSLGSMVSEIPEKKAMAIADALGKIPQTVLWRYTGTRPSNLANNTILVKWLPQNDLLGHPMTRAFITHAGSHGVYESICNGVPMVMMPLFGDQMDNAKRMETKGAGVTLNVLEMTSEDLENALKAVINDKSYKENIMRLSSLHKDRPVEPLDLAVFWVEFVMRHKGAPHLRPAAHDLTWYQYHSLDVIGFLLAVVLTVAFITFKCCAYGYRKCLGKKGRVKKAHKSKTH

[9] = target: UDP-glucuronosyltransferase 1A10 (Homo sapiens, UniProt Q9HAW8); experiment: Inhibition of 4-methylumbelliferone glucuronidation by human recombinant UGT1A10
UDP-glucuronosyltransferase 1A10, sequence (Q9HAW8 whole entry): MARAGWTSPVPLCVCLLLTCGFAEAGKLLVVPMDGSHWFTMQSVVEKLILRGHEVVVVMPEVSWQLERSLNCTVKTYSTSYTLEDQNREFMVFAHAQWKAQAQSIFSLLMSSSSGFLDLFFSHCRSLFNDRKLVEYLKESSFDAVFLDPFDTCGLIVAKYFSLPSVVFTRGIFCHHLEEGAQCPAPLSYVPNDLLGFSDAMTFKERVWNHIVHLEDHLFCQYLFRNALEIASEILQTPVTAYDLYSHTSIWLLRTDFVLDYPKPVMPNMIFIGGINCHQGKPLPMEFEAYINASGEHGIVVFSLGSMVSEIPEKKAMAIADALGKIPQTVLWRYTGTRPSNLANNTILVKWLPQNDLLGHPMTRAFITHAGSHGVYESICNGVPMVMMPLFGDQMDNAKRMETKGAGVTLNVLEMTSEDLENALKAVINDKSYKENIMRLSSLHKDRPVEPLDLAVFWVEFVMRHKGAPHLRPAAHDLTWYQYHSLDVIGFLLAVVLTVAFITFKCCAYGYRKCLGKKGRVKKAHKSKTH

[10] = target: T3, UDP-glucuronosyltransferase 1A9 (Homo sapiens, UniProt O60656); experiment: Inhibition of 4-methylumbelliferone glucuronidation by human recombinant UGT1A9
T3 sequence (O60656 whole entry): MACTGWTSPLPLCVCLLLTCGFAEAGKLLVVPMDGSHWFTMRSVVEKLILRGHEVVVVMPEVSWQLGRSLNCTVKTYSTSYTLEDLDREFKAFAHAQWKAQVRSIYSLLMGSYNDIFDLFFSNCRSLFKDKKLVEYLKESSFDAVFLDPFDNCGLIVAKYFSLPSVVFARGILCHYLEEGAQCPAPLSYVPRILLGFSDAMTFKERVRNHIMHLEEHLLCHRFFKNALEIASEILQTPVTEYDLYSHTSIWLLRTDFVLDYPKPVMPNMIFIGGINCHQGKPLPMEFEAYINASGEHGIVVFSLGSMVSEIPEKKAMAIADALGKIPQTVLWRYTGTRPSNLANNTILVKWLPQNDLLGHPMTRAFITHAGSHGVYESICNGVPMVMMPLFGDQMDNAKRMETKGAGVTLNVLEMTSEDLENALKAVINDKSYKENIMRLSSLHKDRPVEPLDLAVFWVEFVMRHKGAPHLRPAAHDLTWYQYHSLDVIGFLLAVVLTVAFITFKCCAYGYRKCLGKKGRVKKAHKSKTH

[11] = target: T1, UDP-glucuronosyltransferase 1A6; experiment: Inhibition of 4-methylumbelliferone glucuronidation by human recombinant UGT1A6
[12] = target: UDP-glucuronosyltransferase 2B28 (Homo sapiens, UniProt Q9BY64); experiment: Drug glucuronidation reaction catalyzed by human recombinant UGT2B28
UDP-glucuronosyltransferase 2B28, sequence (Q9BY64 whole entry): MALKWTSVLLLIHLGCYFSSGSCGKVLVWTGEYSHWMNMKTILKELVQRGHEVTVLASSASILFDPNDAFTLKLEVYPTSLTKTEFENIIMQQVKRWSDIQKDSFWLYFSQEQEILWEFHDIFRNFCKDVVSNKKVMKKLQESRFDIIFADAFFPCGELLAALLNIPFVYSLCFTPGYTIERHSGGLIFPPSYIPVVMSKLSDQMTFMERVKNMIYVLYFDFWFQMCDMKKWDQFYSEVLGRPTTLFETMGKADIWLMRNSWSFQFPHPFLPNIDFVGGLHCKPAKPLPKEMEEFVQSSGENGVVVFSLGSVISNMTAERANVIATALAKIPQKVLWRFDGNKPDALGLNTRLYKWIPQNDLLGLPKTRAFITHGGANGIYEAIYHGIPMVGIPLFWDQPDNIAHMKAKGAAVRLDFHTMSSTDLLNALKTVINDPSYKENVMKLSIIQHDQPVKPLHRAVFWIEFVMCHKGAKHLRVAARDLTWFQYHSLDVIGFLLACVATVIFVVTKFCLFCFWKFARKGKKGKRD

[13] = target: UGT1A3 (Homo sapiens, UniProt P35503); experiment: (§1) Drug glucuronidation reaction catalyzed by human recombinant UGT1A3; conditions: recombinant UGT1A3
[14] = target: T4, UDP-glucuronosyltransferase 1A3 (Homo sapiens, UniProt P35503); experiment: as §1
T4 sequence (P35503 whole entry): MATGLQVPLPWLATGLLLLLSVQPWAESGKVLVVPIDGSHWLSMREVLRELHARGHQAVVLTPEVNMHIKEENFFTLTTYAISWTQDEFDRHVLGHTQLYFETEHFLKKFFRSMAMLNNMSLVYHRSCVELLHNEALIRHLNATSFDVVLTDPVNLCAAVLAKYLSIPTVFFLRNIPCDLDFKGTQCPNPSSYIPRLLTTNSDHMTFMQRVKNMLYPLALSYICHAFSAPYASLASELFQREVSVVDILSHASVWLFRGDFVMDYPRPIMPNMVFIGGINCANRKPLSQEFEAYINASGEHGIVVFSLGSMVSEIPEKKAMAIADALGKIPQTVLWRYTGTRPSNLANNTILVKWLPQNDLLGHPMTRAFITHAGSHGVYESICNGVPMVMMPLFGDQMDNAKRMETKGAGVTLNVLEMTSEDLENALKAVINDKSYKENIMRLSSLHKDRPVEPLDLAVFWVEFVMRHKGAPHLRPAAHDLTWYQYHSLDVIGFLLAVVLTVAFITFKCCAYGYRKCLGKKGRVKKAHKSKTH

[15] = target: T5, UDP-glucuronosyltransferase 2B7 (Homo sapiens, UniProt P16662); experiment: (§2) Drug glucuronidation reaction catalyzed by human recombinant UGT2B7
T5 sequence (P16662 whole entry): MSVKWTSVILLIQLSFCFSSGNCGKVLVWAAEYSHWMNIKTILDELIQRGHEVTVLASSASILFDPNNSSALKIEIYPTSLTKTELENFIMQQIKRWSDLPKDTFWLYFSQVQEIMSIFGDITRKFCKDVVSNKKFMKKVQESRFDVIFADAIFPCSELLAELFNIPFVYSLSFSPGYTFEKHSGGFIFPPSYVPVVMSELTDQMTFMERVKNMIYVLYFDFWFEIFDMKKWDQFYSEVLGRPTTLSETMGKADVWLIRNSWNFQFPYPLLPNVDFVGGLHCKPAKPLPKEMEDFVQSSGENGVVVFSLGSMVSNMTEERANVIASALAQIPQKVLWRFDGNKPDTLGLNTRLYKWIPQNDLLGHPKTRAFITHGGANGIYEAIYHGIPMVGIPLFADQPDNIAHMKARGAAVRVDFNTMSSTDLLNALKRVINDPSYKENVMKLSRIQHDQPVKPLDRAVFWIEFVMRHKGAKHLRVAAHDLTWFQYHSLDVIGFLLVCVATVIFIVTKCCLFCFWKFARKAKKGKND

[16] = target: T6, UGT2B7 (Homo sapiens, UniProt P16662); experiment: as §2; conditions: recombinant UGT2B7
T6 sequence (P16662 whole entry): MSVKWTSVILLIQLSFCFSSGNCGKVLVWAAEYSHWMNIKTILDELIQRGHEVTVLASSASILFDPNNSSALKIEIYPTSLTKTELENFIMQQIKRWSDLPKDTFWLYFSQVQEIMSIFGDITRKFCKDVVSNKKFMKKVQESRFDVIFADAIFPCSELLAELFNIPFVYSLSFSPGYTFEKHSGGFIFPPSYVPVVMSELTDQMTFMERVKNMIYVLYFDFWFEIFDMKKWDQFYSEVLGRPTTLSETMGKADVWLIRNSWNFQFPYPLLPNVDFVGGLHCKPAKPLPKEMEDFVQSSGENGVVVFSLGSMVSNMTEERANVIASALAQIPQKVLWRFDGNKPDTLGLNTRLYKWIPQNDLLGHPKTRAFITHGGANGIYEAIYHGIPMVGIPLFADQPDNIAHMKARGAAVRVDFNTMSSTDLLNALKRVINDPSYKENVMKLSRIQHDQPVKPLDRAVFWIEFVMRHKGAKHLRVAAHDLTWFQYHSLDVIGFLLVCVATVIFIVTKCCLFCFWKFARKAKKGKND

[17] = Inhibition of codeine glucuronidation by human UGT enzymes from liver homogenate; format: tissue-based
[18] = target: T7, UGT1A9 (Homo sapiens, UniProt O60656); experiment: (§3) Drug glucuronidation reaction catalyzed by human recombinant UGT1A9; conditions: recombinant UGT1A9
[19] = target: T3, UDP-glucuronosyltransferase 1A9; experiment: as §3
[20] = target: T5, UDP-glucuronosyltransferase 2B7; experiment: Inhibition of AZT glucuronidation by human recombinant UGT2B7
[21] = target: UGT2B15 (Homo sapiens, UniProt P54855); experiment: Inhibition of dihydrotestosterone (assayed at the Km) glucuronidation by human recombinant UGT2B15 (+/- 11% inhibition at 5mM VPA); conditions: recombinant UGT2B15, probe dihydrotestosterone
[22] = target: T7, UGT1A9; experiment: Inhibition of propofol (assayed at the Km) glucuronidation by human recombinant UGT1A9 (+/- 15% inhibition at 5mM VPA); conditions: recombinant UGT1A9, probe propofol
[23] = target: UGT1A4 (Homo sapiens, UniProt P22310); experiment: (§4) Drug glucuronidation reaction catalyzed by human recombinant UGT1A4; conditions: recombinant UGT1A4
[24] = target: T8, UDP-glucuronosyltransferase 1A4 (Homo sapiens, UniProt P22310); experiment: as §4
T8 sequence (P22310 whole entry): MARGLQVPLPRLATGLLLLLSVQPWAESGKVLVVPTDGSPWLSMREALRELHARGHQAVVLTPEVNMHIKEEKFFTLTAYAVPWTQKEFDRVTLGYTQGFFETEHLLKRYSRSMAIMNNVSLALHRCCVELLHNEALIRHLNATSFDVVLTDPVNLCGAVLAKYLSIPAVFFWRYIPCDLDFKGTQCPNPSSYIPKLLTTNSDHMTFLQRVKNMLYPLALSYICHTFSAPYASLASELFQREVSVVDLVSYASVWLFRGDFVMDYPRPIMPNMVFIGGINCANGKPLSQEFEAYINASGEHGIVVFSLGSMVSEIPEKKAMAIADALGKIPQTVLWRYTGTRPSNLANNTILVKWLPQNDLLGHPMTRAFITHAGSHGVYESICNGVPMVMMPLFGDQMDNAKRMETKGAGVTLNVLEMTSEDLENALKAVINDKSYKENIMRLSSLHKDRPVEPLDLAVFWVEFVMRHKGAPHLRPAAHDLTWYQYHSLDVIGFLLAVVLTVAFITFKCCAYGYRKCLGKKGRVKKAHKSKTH

[25] = substrate: C[C@]12CC[C@H](O)C[C@@H]1CC[C@@H]1[C@@H]2CC[C@]2(C)[C@@H](O)CC[C@@H]12; experiment: (§5) Drug glucuronidation reaction catalyzed by human recombinant UGT2B15
[26] = substrate: CCc1c2c(nc3ccc(O)cc13)-c1cc3c(c(=O)n1C2)COC(=O)[C@]3(O)CC; experiment: as §5
[27] = substrate: CS(=O)(=O)c1ccc(C2=C(c3ccccc3)C(=O)OC2O)cc1; experiment: as §5
[28] = substrate: CCN(CC)C(=O)/C(C#N)=C/c1cc(O)c(O)c([N+](=O)[O-])c1; experiment: as §5
[29] = substrate: CC(O)/C(=C(\c1ccccc1)c1ccc(OCCN(C)C)cc1)c1ccccc1; experiment: as §5
[30] = substrate: Cc1ccc(C(=O)c2cc(O)c(O)c([N+](=O)[O-])c2)cc1; experiment: as §5
[31] = substrate: O=C1Nc2ccc(Cl)cc2C(c2ccccc2)=N[C@H]1O; experiment: not read

## O=C1Nc2ccc(Cl)cc2C(c2ccccc2)=NC1O (stereo unspecified) [OXAZEPAM]
[1]
  Ki: 200 µM and 270 µM
[2]
  Ki: 188 µM
[3]
  Ki: 120 µM
[4]
  Ki: 580 µM

## CC(=O)Nc1ccc(O)cc1 [ACETAMINOPHEN]
[5]
  Vmax: 100 pmol/min/mg protein

## CCCN(CCC)S(=O)(=O)c1ccc(C(=O)O)cc1 [PROBENECID]
[6]
  Ki: 1100 µM
[7]
  Ki: 96 µM
[8]
  Ki: 221 µM
[9]
  Ki: 231 µM
[10]
  Ki: 2450 µM
[11]
  Ki: 1430 µM
[4]
  Ki: 1600 µM

## C[C@]12CC[C@@H]3c4ccc(O)cc4CC[C@H]3[C@@H]1CC[C@@H]2O [ESTRADIOL]
[12]
  Vmax: < 1 pmol/min/mg protein

## O=C(O)Cc1ccccc1Nc1c(Cl)cccc1Cl [DICLOFENAC]
[13]
  Km: 12 µM
[14]
  Vmax: 142 pmol/min/mg protein
[15]
  Km: 25 µM
[16]
  Km: 13 µM
[7]
  Ki: 19 µM
[8]
  Ki: 52 µM
[17]
  Ki: 7.9 µM
[9]
  Ki: 28 µM
[18]
  Km: 16 µM
[19]
  Vmax: 166 pmol/min/mg protein
[10]
  Ki: 11 µM

## CCCC(CCC)C(=O)O [VALPROIC ACID]
[20]
  Ki: 1600 µM
[21]
  inhibition at 5000 µM: 41%
[22]
  inhibition at 5000 µM: 46%

## Cc1cc2c(s1)Nc1ccccc1N=C2N1CCN(C)CC1 [OLANZAPINE]
[23]
  Km: 227 µM
[24]
  Vmax: 2370 pmol/min/mg protein

B1: UDP-glucuronosyltransferase 2B15 (Homo sapiens) (protein)
chain: MSLKWTSVFLLIQLSCYFSSGSCGKVLVWPTEYSHWINMKTILEELVQRGHEVTVLTSSASTLVNASKSSAIKLEVYPTSLTKNYLEDSLLKILDRWIYGVSKNTFWSYFSQLQELCWEYYDYSNKLCKDAVLNKKLMMKLQESKFDVILADALNPCGELLAELFNIPFLYSLRFSVGYTFEKNGGGFLFPPSYVPVVMSELSDQMIFMERIKNMIHMLYFDFWFQIYDLKKWDQFYSEVLGRPTTLFETMGKAEMWLIRTYWDFEFPRPFLPNVDFVGGLHCKPAKPLPKEMEEFVQSSGENGIVVFSLGSMISNMSEESANMIASALAQIPQKVLWRFDGKKPNTLGSNTRLYKWLPQNDLLGHPKTKAFITHGGTNGIYEAIYHGIPMVGIPLFADQHDNIAHMKAKGAALSVDIRTMSSRDLLNALKSVINDPVYKENVMKLSRIHHDQPMKPLDRAVFWIEFVMRHKGAKHLRVAAHNLTWIQYHSLDVIAFLLACVATVIFIITKFCLFCFRKLAKKGKKKKRD
[25]
  Km: 15 µM
  Vmax: 0.00098 µmol/min/mg
[26]
  Km: 186 µM
  Vmax: 2e-06 µmol/min/mg
[27]
  Km: 286 µM
  Vmax: 1.6e-05 µmol/min/mg
[28]
  Km: 322 µM
  Vmax: 2.4e-05 µmol/min/mg
[29]
  Km: 7 µM and 18 µM
[30]
  Km: 429 µM
  Vmax: 2.4e-05 µmol/min/mg
[31]
  Km: 35 µM and 29 µM
